Measurements published in patent US5064811A, “De-mannosyl teicoplanin derivatives” (Gruppo LePetit S.p.A., priority 1987, dated 1991).

Experiments:
Staph. aureus L165 = assay: MIC, standard broth dilution test; type: cell-based, Staphylococcus aureus; conditions: Isosensitest broth, 24 h
[1] = system: Staph. epider midis L147 ATCC 12228 (coagulase negative); assay: MIC, standard broth dilution test; type: cell-based, Staphylococcus epidermidis; conditions: Isosensitest broth, 24 h; inoculum about 10^4-10^5 cfu/ml
Strep. pyogenes L49 C203 = assay: MIC, standard broth dilution test; type: cell-based, Streptococcus pyogenes; conditions: Todd-Hewitt broth, 24 h; inoculum about 10^4-10^5 cfu/ml
[2] = system: Strep. pneumoniae L44 UC41; assay: MIC, standard broth dilution test; type: cell-based, Streptococcus pneumoniae; conditions: Todd-Hewitt broth, 24 h; inoculum about 10^4-10^5 cfu/ml
[3] = system: Strep. faecalis L149 ATCC 7080; assay: MIC, standard broth dilution test; type: cell-based, Streptococcus faecalis; conditions: Isosensitest broth, 24 h; inoculum about 10^4-10^5 cfu/ml
[4] = system: Strep. mitis L796 (clinical isolate); assay: MIC, standard broth dilution test; type: cell-based, Streptococcus mitis; conditions: Todd-Hewitt broth, 24 h; inoculum about 10^4-10^5 cfu/ml
[5] = system: Neisseria gonorrhoeae L997 ISM68/126; assay: MIC, standard broth dilution test; type: cell-based; conditions: GC base broth +1% Isovitalex, 48 h, CO2-enriched atmosphere; inoculum about 10^4-10^5 cfu/ml
[6] = system: Haemophilus influenzae L 970 type b ATCC 19418; assay: MIC, standard broth dilution test; type: cell-based; conditions: Brain Heart broth +1% Supplement C, 48 h; inoculum about 10^4-10^5 cfu/ml
[7] = system: Escherichia coli L47 SKF 12140; assay: MIC, standard broth dilution test; type: cell-based; conditions: Isosensitest broth, 24 h; inoculum about 10^4-10^5 cfu/ml
[8] = system: Proteus vulgaris L79 X19H ATCC881; type: cell-based; conditions: Isosensitest broth, 24 h (Gram-negative bacteria); inoculum about 10^4-10^5 cfu/ml
[9] = system: Pseudomonas aeruginosa L4 ATCC10145; assay: MIC, standard broth dilution test; type: cell-based; conditions: Isosensitest broth, 24 h (Gram-negative bacteria); inoculum about 10^4-10^5 cfu/ml
[10] = system: Staph. haemolyticus L602 (clinical isolate); assay: MIC, standard broth dilution test; type: cell-based, Staphylococcus haemolyticus; conditions: Isosensitest broth, 24 h; inoculum about 10^4-10^5 cfu/ml
[11] = Staph. aureus (30% bovine serum)
[12] = Staph. aureus L165, inoculum about 10^4-10^5 cfu/ml

| SMILES | M.I.C. (Staph. aureus L165; Staph. aureus (10^6 cfu/ml)) | M.I.C. (Staph. aureus L165; [11]) | M.I.C. (Staph. aureus L165; [12]) | M.I.C. [1] | M.I.C. (Strep. pyogenes L49 C203) | M.I.C. [2] | M.I.C. [3] | M.I.C. [4] | M.I.C. [5] | M.I.C. [6] | M.I.C. [7] | M.I.C. [8] | M.I.C. [9] | M.I.C. [10] |
| --- | --- | --- | --- | --- | --- | --- | --- | --- | --- | --- | --- | --- | --- | --- |
| CC(=O)N[C@H]1[C@H](OC2c3ccc(c(Cl)c3)Oc3cc4cc(c3O[C@@H]3O[C@H](CO)[C@@H](O)[C@H](O)[C@H]3NC(=O)CCCCCCC(C)C)Oc3ccc(cc3Cl)CC3NC(=O)C(N)c5ccc(O)c(c5)Oc5cc(O)cc(c5)C(NC3=O)C(=O)NC4C(=O)NC3C(=O)NC2C(=O)NC(C(=O)O)c2cc(O)cc(O)c2-c2cc3ccc2O)O[C@H](CO)[C@@H](O)[C@@H]1O (some centres unmarked) [DM-TA2-2, de-mannosyl teicoplanin complex component 2] | 0.125 microgram/ml | 0.5 microgram/ml | 0.063 microgram/ml | 0.063 microgram/ml | 0.063 microgram/ml | 0.063 microgram/ml | 0.063 microgram/ml | 0.063 microgram/ml | 32 microgram/ml | 64 microgram/ml | > 128 microgram/ml | > 128 microgram/ml | > 128 microgram/ml | 0.5 microgram/ml |
| CCCCCCCCCC(=O)N[C@H]1[C@H](Oc2c3cc4cc2Oc2ccc(cc2Cl)C(O[C@@H]2O[C@H](CO)[C@@H](O)[C@H](O)[C@H]2NC(C)=O)C2NC(=O)C(NC(=O)C4NC(=O)C4NC(=O)C(Cc5ccc(c(Cl)c5)O3)NC(=O)C(N)c3ccc(O)c(c3)Oc3cc(O)cc4c3)c3ccc(O)c(c3)-c3c(O)cc(O)cc3C(C(=O)O)NC2=O)O[C@H](CO)[C@@H](O)[C@@H]1O (some centres unmarked) [DM-TA2-3, de-mannosyl teicoplanin complex component 3] | 0.125 microgram/ml | 0.5 microgram/ml | 0.063 microgram/ml | 0.063 microgram/ml | 0.063 microgram/ml | 0.063 microgram/ml | 0.063 microgram/ml | 0.063 microgram/ml | 32 microgram/ml | 64 microgram/ml | > 128 microgram/ml | > 128 microgram/ml | 128 microgram/ml | 0.5 microgram/ml |
| CCC(C)CCCCCCC(=O)N[C@H]1[C@H](Oc2c3cc4cc2Oc2ccc(cc2Cl)C(O[C@@H]2O[C@H](CO)[C@@H](O)[C@H](O)[C@H]2NC(C)=O)C2NC(=O)C(NC(=O)C4NC(=O)C4NC(=O)C(Cc5ccc(c(Cl)c5)O3)NC(=O)C(N)c3ccc(O)c(c3)Oc3cc(O)cc4c3)c3ccc(O)c(c3)-c3c(O)cc(O)cc3C(C(=O)O)NC2=O)O[C@H](CO)[C@@H](O)[C@@H]1O (some centres unmarked) [DM-TA2-4, de-mannosyl teicoplanin complex component 4] | 0.25 microgram/ml | 0.5 microgram/ml | 0.125 microgram/ml | 0.063 microgram/ml | 0.063 microgram/ml | 0.063 microgram/ml | 0.063 microgram/ml | 0.125 microgram/ml | 32 microgram/ml | 64 microgram/ml | > 128 microgram/ml | > 128 microgram/ml | > 128 microgram/ml | 0.5 microgram/ml |
| CC(=O)N[C@H]1[C@H](OC2c3ccc(c(Cl)c3)Oc3cc4cc(c3O[C@@H]3O[C@H](CO)[C@@H](O)[C@H](O)[C@H]3NC(=O)CCCCCCCC(C)C)Oc3ccc(cc3Cl)CC3NC(=O)C(N)c5ccc(O)c(c5)Oc5cc(O)cc(c5)C(NC3=O)C(=O)NC4C(=O)NC3C(=O)NC2C(=O)NC(C(=O)O)c2cc(O)cc(O)c2-c2cc3ccc2O)O[C@H](CO)[C@@H](O)[C@@H]1O (some centres unmarked) [DM-TA2-5, de-mannosyl teicoplanin complex component 5] | 0.125 microgram/ml | 0.5 microgram/ml | 0.063 microgram/ml | 0.063 microgram/ml | 0.063 microgram/ml | 0.063 microgram/ml | 0.063 microgram/ml | 0.063 microgram/ml | 32 microgram/ml | 32 microgram/ml | > 128 microgram/ml | > 128 microgram/ml | > 128 microgram/ml | 0.25 microgram/ml |
